Measurements: the supplement of paper PMC10307832

Legend:
Experiment in all cases: relative viability (nuclei count vs DMSO), 5 days (fraction); higher = more cells survive
A-427 = system: A-427
In short: (§1)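 Cells from lung cancer lines were seeded into 1536-well plates and, one day later, dosed by pin tool. Treatments were either a single drug or a fixed dose of an anchor drug with five library-drug doses (not always all listed) in √10 steps. After 5 days, nuclei were stained in a one-step fixation (final 0.05% Triton X-100, 1% formaldehyde, 1 ug/ml Hoechst) and counted on 4× images, and relative viability is the treated-to-vehicle nuclei ratio, as the median of duplicate plates.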

HCC-366 = system: HCC-366
In short: as §1

HCC-827 = system: HCC-827
In short: as §1

LC-2-ad = system: LC-2-ad
In short: as §1

LCLC-103H = system: LCLC-103H
In short: as §1

NCI-H1355 = system: NCI-H1355
In short: as §1

NCI-H1734 = system: NCI-H1734
In short: as §1

NCI-H1755 = system: NCI-H1755
In short: as §1

NCI-H1792 = system: NCI-H1792
In short: as §1

NCI-H1915 = system: NCI-H1915
In short: as §1

NCI-H1975 = system: NCI-H1975
In short: as §1

NCI-H1993 = system: NCI-H1993
In short: as §1

NCI-H2170 = system: NCI-H2170
In short: as §1

NCI-H2342 = system: NCI-H2342
In short: as §1

NCI-H2347 = system: NCI-H2347
In short: as §1

NCI-H23 = system: NCI-H23
In short: as §1

NCI-H650 = system: NCI-H650
In short: as §1

RERF-LC-KJ = system: RERF-LC-KJ
In short: as §1

Cc1csc(=NC2CCCCC2)n1/N=C/c1ccc(O)c(O)c1O [MIM1] + NC(=O)Nc1cc(-c2cccc(F)c2)sc1C(=O)N[C@H]1CCCNC1 [AZD7762] (partner 0.2 µM)
relative viability (A-427; first compound 0.2 µM): 0.706 | relative viability (A-427; first compound 0.6325 µM): 0.7 | relative viability (A-427; first compound 2 µM): 0.651 | relative viability (A-427; first compound 6.325 µM): 0.525 | relative viability (A-427; first compound 20 µM): 0.395 | relative viability (HCC-366; first compound 0.2 µM): 0.318 | relative viability (HCC-366; first compound 2 µM): 0.181 | relative viability (HCC-366; first compound 6.325 µM): 0.093 | relative viability (HCC-366; first compound 20 µM): 0.0374 | relative viability (HCC-827; first compound 0.2 µM): 0.245 | relative viability (HCC-827; first compound 0.6325 µM): 0.235 | relative viability (HCC-827; first compound 2 µM): 0.165 | relative viability (HCC-827; first compound 6.325 µM): 0.189 | relative viability (HCC-827; first compound 20 µM): 0.304 | relative viability (LC-2-ad; first compound 0.2 µM): 0.804 | relative viability (LC-2-ad; first compound 0.6325 µM): 0.706 | relative viability (LC-2-ad; first compound 2 µM): 0.9 | relative viability (LC-2-ad; first compound 6.325 µM): 0.389 | relative viability (LC-2-ad; first compound 20 µM): 0.234 | relative viability (LCLC-103H; first compound 0.2 µM): 0.691 | relative viability (LCLC-103H; first compound 0.6325 µM): 0.79 | relative viability (LCLC-103H; first compound 2 µM): 0.759 | relative viability (LCLC-103H; first compound 6.325 µM): 0.698 | relative viability (LCLC-103H; first compound 20 µM): 0.399 | relative viability (NCI-H1355; first compound 0.2 µM): 0.802 | relative viability (NCI-H1355; first compound 0.6325 µM): 0.69 | relative viability (NCI-H1355; first compound 2 µM): 0.814 | relative viability (NCI-H1355; first compound 6.325 µM): 0.529 | relative viability (NCI-H1355; first compound 20 µM): 0.673 | relative viability (NCI-H1734; first compound 0.2 µM): 0.524 | relative viability (NCI-H1734; first compound 0.6325 µM): 0.467 | relative viability (NCI-H1734; first compound 2 µM): 0.492 | relative viability (NCI-H1734; first compound 6.325 µM): 0.417 | relative viability (NCI-H1734; first compound 20 µM): 0.158 | relative viability (NCI-H1755; first compound 0.2 µM): 0.464 | relative viability (NCI-H1755; first compound 0.6325 µM): 0.436 | relative viability (NCI-H1755; first compound 2 µM): 0.433 | relative viability (NCI-H1755; first compound 6.325 µM): 0.38 | relative viability (NCI-H1755; first compound 20 µM): 0.354 | relative viability (NCI-H1792; first compound 0.2 µM): 0.657 | relative viability (NCI-H1792; first compound 0.6325 µM): 0.565 | relative viability (NCI-H1792; first compound 2 µM): 0.733 | relative viability (NCI-H1792; first compound 6.325 µM): 0.559 | relative viability (NCI-H1792; first compound 20 µM): 0.858 | relative viability (NCI-H1915; first compound 0.2 µM): 0.691 | relative viability (NCI-H1915; first compound 0.6325 µM): 0.495 | relative viability (NCI-H1915; first compound 2 µM): 0.574 | relative viability (NCI-H1915; first compound 6.325 µM): 0.384 | relative viability (NCI-H1915; first compound 20 µM): 0.283 | relative viability (NCI-H1975; first compound 0.2 µM): 0.765 | relative viability (NCI-H1975; first compound 0.6325 µM): 0.628 | relative viability (NCI-H1975; first compound 2 µM): 0.697 | relative viability (NCI-H1975; first compound 6.325 µM): 0.549 | relative viability (NCI-H1975; first compound 20 µM): 0.572 | relative viability (NCI-H1993; first compound 0.2 µM): 0.704 | relative viability (NCI-H1993; first compound 0.6325 µM): 0.761 | relative viability (NCI-H1993; first compound 2 µM): 0.73 | relative viability (NCI-H1993; first compound 6.325 µM): 0.569 | relative viability (NCI-H1993; first compound 20 µM): 0.35 | relative viability (NCI-H2170; first compound 0.2 µM): 0.857 | relative viability (NCI-H2170; first compound 0.6325 µM): 0.826 | relative viability (NCI-H2170; first compound 2 µM): 0.759 | relative viability (NCI-H2170; first compound 6.325 µM): 0.368 | relative viability (NCI-H2170; first compound 20 µM): 0.158 | relative viability (NCI-H2342; first compound 0.2 µM): 0.414 | relative viability (NCI-H2342; first compound 0.6325 µM): 0.475 | relative viability (NCI-H2342; first compound 2 µM): 0.431 | relative viability (NCI-H2342; first compound 6.325 µM): 0.477 | relative viability (NCI-H2342; first compound 20 µM): 0.543 | relative viability (NCI-H2347; first compound 0.2 µM): 0.689 | relative viability (NCI-H2347; first compound 0.6325 µM): 0.779 | relative viability (NCI-H2347; first compound 2 µM): 0.797 | relative viability (NCI-H2347; first compound 6.325 µM): 0.623 | relative viability (NCI-H2347; first compound 20 µM): 0.57 | relative viability (NCI-H23; first compound 0.2 µM): 0.277 | relative viability (NCI-H23; first compound 0.6325 µM): 0.213 | relative viability (NCI-H23; first compound 2 µM): 0.192 | relative viability (NCI-H23; first compound 6.325 µM): 0.263 | relative viability (NCI-H23; first compound 20 µM): 0.139 | relative viability (NCI-H650; first compound 0.2 µM): 1.05 | relative viability (NCI-H650; first compound 0.6325 µM): 1.03 | relative viability (NCI-H650; first compound 2 µM): 0.866 | relative viability (NCI-H650; first compound 6.325 µM): 0.975 | relative viability (NCI-H650; first compound 20 µM): 0.271 | relative viability (RERF-LC-KJ; first compound 0.2 µM): 0.957 | relative viability (RERF-LC-KJ; first compound 0.6325 µM): 0.917 | relative viability (RERF-LC-KJ; first compound 2 µM): 0.818 | relative viability (RERF-LC-KJ; first compound 6.325 µM): 0.687 | relative viability (RERF-LC-KJ; first compound 20 µM): 0.17
